# From patent US12109245B2, “Extract of aerial parts of Maca rich in polyphenols and composition comprising same” (LABORATOIRES EXPANSCIENCE, priority 2010, dated 2024)
# Experiments:
# Format in all cases: cell-based
# Jurkat cell lines = assay: UV-induced lipid peroxidation (C11-Fluor probe, flow cytometry); details: 100 μM BHT
# Procedure: Jurkat cell lines were pre-incubated for 45 minutes in the presence of 0.005% and 0.01% (w/v of active substance) Maca leaf extract (MC) or 100 μM BHT (reference) and in the presence of the C11-Fluor fluorescent probe, specific for lipid peroxidation.
# The cells were then irradiated with UVA+B and incubated for 30 minutes in the presence of MC or BHT.
# At the end of incubation, the quantity of lipid peroxides was evaluated by means of a flow cytometry analysis of the fluorescence intensity (inversely proportional to oxidation).
# The results were analysed were analysed statistically using a Student's t test.
# [1] = tested on: Human keratinocytes (NCTC-2544 line); assay: PMA-induced IL8 and PGE2 production by keratinocytes (ELISA)
# Procedure: The cells were then treated with 0.1 μg/ml PMA (Phorbol Myristate Acetate) for 24 hours, also in the presence of MC or the references. Following the treatment, the quantities of IL8 (interleukin8) and PGE2 (prostaglandin E2) secreted were measured by means of ELISA in the culture supernatants. The results were analysed statistically using a Student's t test.
# Human neutrophils = assay: Release of elastase by neutrophils; details: 10 μg/ml Boswellic acid
# Procedure: Human neutrophils were treated for 15 minutes with 0.005 and 0.01% (w/v of active substance) Maca leaf extract (MC) or with 10 μg/ml Boswellic acid (reference) and stimulated with 1 μM calcium ionophore A23187, for 10 minutes. The release of elastase was evaluated by measuring the elastase activity with a spectrophotometric method. The results were analysed statistically using a Student's t test.
# Normal human adipocytes = assay: Evaluation of lipogenesis in adipocytes ([14C]-acetate incorporation); details: 20 μM cerulenin
# Procedure: Normal human adipocytes were incubated for 1 hour in the presence of 0.005% and 0.01% (w/v of active substance) Maca leaf extract or reference (20 μM cerulenin). After incubation, the radioactive marker [^14C]-acetate was added and the samples were incubated overnight.
# At the end of incubation, the lipids were extracted and the incorporated radioactivity (corresponding to lipogenesis) was measured by means of liquid scintillation.
# The results were analysed statistically using a Student's t test.
# [2] = tested on: Normal human dermal fibroblasts; assay: Gene expression of dermal matrix markers in fibroblasts (real-time RT-PCR); details: 5 ng/ml TGFβ1, 24 hours
# Procedure: Normal human dermal fibroblasts were treated for 24 hours with 0.002% and 0.005% (w/v of active substance) Maca leaf extract (MC) or with 5 ng/ml TGFβ1 (reference).
# At the end of incubation, the gene expression of various dermal matrix markers was analysed by means of real-time RT-PCR.
# The results were analysed statistically by means of a one-factor ANOVA followed by a Dunnett test.
compound,measurement,setting,value
Cc1cc(C(C)(C)C)c(O)c(C(C)(C)C)c1 [BHT],Protection (%) against UV-induced lipid peroxidation,Jurkat cell lines,49%
same,Lipid peroxidases (% irradiated reference),Jurkat cell lines; UVA+B irradiated cells = 100,64%
COc1ccc2c(c1)c(CC(=O)O)c(C)n2C(=O)c1ccc(Cl)cc1 [indometacin],PGE2 Inhibition,"[1]; 10−6M indometacin, 0.1 μg/ml PMA",100%
same,PGE2 production,"[1]; 10−6M indometacin, 0.1 μg/ml PMA 24 hours (PMA alone 138.4 ± 10.6)",0.039 ± 0.0 ng/ml %
C[C@H]1[C@H](C)CC[C@]2(C)CC[C@]3(C)C(=CC[C@@H]4[C@@]5(C)CC[C@@H](O)[C@](C)(C(=O)O)[C@@H]5CC[C@]43C)[C@H]12 [Boswellic acid],Elastase (net release; %),"Human neutrophils; 15 minutes, 1 μM calcium ionophore A23187 = 100",50.90 ± 7.49%
same,inhibition at 10 µg/mL,"Human neutrophils; Homo sapiens, Neutrophil",49%
C[C@@H]1C[C@H]2[C@@H]3CCC4=CC(=O)C=C[C@]4(C)[C@@]3(F)[C@@H](O)C[C@]2(C)[C@@]1(O)C(=O)CO [dexamethasone],IL8 Inhibition,"[1]; 10−7M dexamethasone, 0.1 μg/ml PMA",85%
same,IL8 production,"[1]; 10−7M dexamethasone, 0.1 μg/ml PMA 24 hours (PMA alone 50.1 ± 1.8)",7.4 ± 0.08 ng/ml %
"C/C=C/C/C=C/CCC(=O)[C@H]1O[C@H]1C(N)=O [Cerulenin, cerulenin]",Acetate incorporation (cpm),Normal human adipocytes; control cells 32895 ± 1358,14934 ± 671 cpm
same,inhibition at 20 µM,"Normal human adipocytes; Homo sapiens, Adipocyte",55%
TGFβ1: 5 ng/ml TGFβ1 (reference) in the dermal fibroblast test,"Collagen I gene expression, change vs control",[2],+40%
same,"Dermatopontin gene expression, change vs control",[2],+34%
same,"Elastin gene expression, change vs control",[2],+57%
same,"Fibronectin gene expression, change vs control",[2],+141%
same,"MMP1 gene expression, change vs control",[2],−78%
same,Collagen I gene expression (Relative Quantity),[2]; control = 1.00,1.40
same,Dermatopontin gene expression (Relative Quantity),[2]; control = 1.00,1.34
same,Elastin gene expression (Relative Quantity),[2]; control = 1.00,1.57
same,Fibronectin gene expression (Relative Quantity),[2]; control = 1.00,2.41
same,MMP1 gene expression (Relative Quantity),[2]; control = 1.00,0.22
